# What was measured:
# [1] = biological target: T1, Human UII (U-II receptor) in 6D9 human rhabdomyosarcoma cells (Homo sapiens, UniProt Q9UKP6); assay: Human UII Calcium Mobilization Assay; type: cell-based; settings: 6D9 human rhabdomyosarcoma cells, FLIPR TETRA, average; read-out: Human UII Ca+ Mobilization Average IC50
# T1 construct: 6D9: isolated by dilution subcloning of RMS13 cells, ATCC® Number: CRL-2061; host or cells: 6D9 human rhabdomyosarcoma cells (subclone of RMS13)
# T1 sequence (Q9UKP6 1-389): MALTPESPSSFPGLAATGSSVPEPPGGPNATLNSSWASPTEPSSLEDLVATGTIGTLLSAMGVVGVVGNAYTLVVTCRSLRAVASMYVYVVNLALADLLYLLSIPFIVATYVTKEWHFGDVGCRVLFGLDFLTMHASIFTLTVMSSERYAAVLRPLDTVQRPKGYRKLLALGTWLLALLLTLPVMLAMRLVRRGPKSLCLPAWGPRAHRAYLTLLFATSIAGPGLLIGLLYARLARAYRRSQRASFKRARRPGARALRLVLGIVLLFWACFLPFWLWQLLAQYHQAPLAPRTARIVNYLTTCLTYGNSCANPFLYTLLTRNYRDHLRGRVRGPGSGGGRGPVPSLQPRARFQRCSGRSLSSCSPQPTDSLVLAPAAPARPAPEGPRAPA
# [2] = biological target: T2, UT receptors in HSMM (Human Skeletal Muscle Myoblasts) (Homo sapiens, UniProt Q9UKP6); assay: Human Radioligand Binding Assay ((^125I)-U-II binding to intact HSMM)
# T2 sequence (Q9UKP6 1-389): T1 sequence (Q9UKP6 1-389)
# [3] = biological target: T3, rat GPR14 (U-II receptor) (Rattus norvegicus, UniProt P49684); assay: Rat UII Calcium Mobilization FLIPR Assay; type: cell-based; settings: CHO cells transfected with rat GPR14; antagonist activity after 5 min incubation vs agonist (Ac)-CFWK(2-NaI)C-NH2 at 1 nM
# T3 construct: expressed in transfected cells
# T3 sequence (P49684 1-386): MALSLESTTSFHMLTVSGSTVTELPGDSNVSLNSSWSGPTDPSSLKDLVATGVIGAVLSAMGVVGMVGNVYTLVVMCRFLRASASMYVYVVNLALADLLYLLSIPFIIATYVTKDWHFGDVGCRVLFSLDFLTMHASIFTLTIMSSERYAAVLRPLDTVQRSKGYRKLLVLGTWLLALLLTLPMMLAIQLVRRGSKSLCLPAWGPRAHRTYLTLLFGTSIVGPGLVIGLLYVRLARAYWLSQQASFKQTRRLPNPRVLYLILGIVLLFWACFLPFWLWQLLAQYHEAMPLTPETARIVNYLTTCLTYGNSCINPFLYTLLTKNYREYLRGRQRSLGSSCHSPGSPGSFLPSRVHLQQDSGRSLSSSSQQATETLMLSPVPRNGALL
# How it was run: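 Fluorescent calcium signals were recorded at room temperature (23° C) by FLIPR. Stable rat U-II receptor CHO lines had been dye-loaded for 1 h at 37° C in pH 7.4 HBSS containing 20 mM HEPES, 0.1% BSA and 2.5 mM probenecid.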
# [4] = biological target: T3, rat GPR14 (U-II receptor); settings: agonist activity of the cyclic peptide used as agonist; read-out: FLIPR EC50; cited from earlier work
# rU-II = biological target: T4, rU-II (Rattus norvegicus, UniProt P49684); settings: cited from earlier work
# T4 sequence (P49684 1-386): T3 sequence (P49684 1-386)
IC50 [1],Ki [2],IC50 [3],Compound,EC50 [4],Ki (rU-II)
69 nM,21 nM,5 nM,"CCN1CCN(c2cccc3c2CN([C@H](CCCN2CCc4ccccc4C2)c2ccc(OC)c(OC)c2)C3=O)CC1 [Cpd 101, 2-[(1R)-4-(3,4-dihydro-1H-isoquinolin-2-yl)-1-(3,4-dimethoxy-phenyl)-butyl]-4-(4-ethyl-piperazin-1-yl)-2,3-dihydro-isoindol-1-one]",–,–
1280 nM,> 300 nM,93 nM,"CCN1CCN(c2cccc3c2CN([C@H](CCCn2cc(C)nc2C)c2ccc(OC)c(OC)c2)C3=O)CC1 [Cpd 102, 2-[(1R)-1-(3,4-dimethoxy-phenyl)-4-(2,4-dimethyl-imidazol-1-yl)-butyl]-4-(4-ethyl-piperazin-1-yl)-2,3-dihydro-isoindol-1-one]",–,–
1400 nM,158 nM,141 nM,"CCN1CCN(c2cccc3c2CN([C@H](CCCn2ccnc2C)c2ccc(OC)c(OC)c2)C3=O)CC1 [Cpd 103, 2-[(1R)-1-(3,4-dimethoxy-phenyl)-4-(2-methyl-imidazol-1-yl)-butyl]-4-(4-ethyl-piperazin-1-yl)-2,3-dihydro-isoindol-1-one]",–,–
206 nM,46 nM,16 nM,"CCN1CCN(c2cccc3c2CN([C@H](CCCn2ccnc2C(C)C)c2ccc(OC)c(OC)c2)C3=O)CC1 [Cpd 104, 2-[(1R)-1-(3,4-dimethoxy-phenyl)-4-(2-isopropyl-imidazol-1-yl)-butyl]-4-(4-ethyl-piperazin-1-yl)-2,3-dihydro-isoindol-1-one]",–,–

# More lines, now with the values behind:
Compound,IC50 [1],Ki [2],IC50 [3],EC50 [4],Ki (rU-II)
"CCN1CCN(c2cccc3c2CN([C@H](CCCN(C)Cc2cccs2)c2ccc(OC)c(OC)c2)C3=O)CC1 [Cpd 95, 2-[(1R)-1-(3,4-dimethoxy-phenyl)-4-(methyl-thiophen-2-ylmethyl-amino)-butyl]-4-(4-ethyl-piperazin-1-yl)-2,3-dihydro-isoindol-1-one]",92 nM,23 nM,5 nM,–,–
"CCN1CCN(c2cccc3c2CN([C@H](CCCN(Cc2ccccc2)C(C)C)c2ccc(OC)c(OC)c2)C3=O)CC1 [Cpd 96, 2-[(1R)-4-(benzyl-isopropyl-amino)-1-(3,4-dimethoxy-phenyl)-butyl]-4-(4-ethyl-piperazin-1-yl)-2,3-dihydro-isoindol-1-one]",152 nM,69 nM,15 nM,–,–
"CCN1CCN(c2cccc3c2CN([C@H](CCCN(C)Cc2ccccc2F)c2ccc(OC)c(OC)c2)C3=O)CC1 [Cpd 97, 2-{(1R)-1-(3,4-dimethoxy-phenyl)-4-[(2-fluoro-benzyl)-methyl-amino]-butyl}-4-(4-ethyl-piperazin-1-yl)-2,3-dihydro-isoindol-1-one]",56 nM,26 nM,4 nM,–,–
"CCN1CCN(c2cccc3c2CN([C@H](CCCN(C)Cc2cccc(F)c2)c2ccc(OC)c(OC)c2)C3=O)CC1 [Cpd 98, 2-{(1R)-1-(3,4-dimethoxy-phenyl)-4-[(3-fluoro-benzyl)-methyl-amino]-butyl}-4-(4-ethyl-piperazin-1-yl)-2,3-dihydro-isoindol-1-one]",105 nM,59 nM,4 nM,–,–
"CCN1CCN(c2cccc3c2CN([C@H](CCCN(C)Cc2ccc(F)cc2)c2ccc(OC)c(OC)c2)C3=O)CC1 [Cpd 99, 2-{(1R)-1-(3,4-dimethoxy-phenyl)-4-[(4-fluoro-benzyl)-methyl-amino]-butyl}-4-(4-ethyl-piperazin-1-yl)-2,3-dihydro-isoindol-1-one]",238 nM,47 nM,4 nM,–,–
"CCN1CCN(c2cccc3c2CN([C@H](CCCN2Cc4ccccc4C2)c2ccc(OC)c(OC)c2)C3=O)CC1 [Cpd 100, 2-[(1R)-4-(1,3-dihydro-isoindol-2-yl)-1-(3,4-dimethoxy-phenyl)-butyl]-4-(4-ethyl-piperazin-1-yl)-2,3-dihydro-isoindol-1-one]",319 nM,24 nM,8 nM,–,–
(Ac)-CFWK(2-NaI)C—NH2,–,–,–,0.54 ± 0.2 nM,0.12 ± 0.05 nM

# Source: patent US8008299B2, “Urotensin II receptor antagonists” (Janssen Pharmaceutica, N.V., priority 2007, dated 2011)
